Drawing on patent US8436186B2, “Thiazolyl piperidine derivatives” (Merck Patent Gesellschaft mit beschrankter Haftung, priority 2008, dated 2013), this text covers IC50 for 27 compounds.

Some results are limits rather than exact numbers.

Chain of SphK1 (Q9NYA1 whole entry): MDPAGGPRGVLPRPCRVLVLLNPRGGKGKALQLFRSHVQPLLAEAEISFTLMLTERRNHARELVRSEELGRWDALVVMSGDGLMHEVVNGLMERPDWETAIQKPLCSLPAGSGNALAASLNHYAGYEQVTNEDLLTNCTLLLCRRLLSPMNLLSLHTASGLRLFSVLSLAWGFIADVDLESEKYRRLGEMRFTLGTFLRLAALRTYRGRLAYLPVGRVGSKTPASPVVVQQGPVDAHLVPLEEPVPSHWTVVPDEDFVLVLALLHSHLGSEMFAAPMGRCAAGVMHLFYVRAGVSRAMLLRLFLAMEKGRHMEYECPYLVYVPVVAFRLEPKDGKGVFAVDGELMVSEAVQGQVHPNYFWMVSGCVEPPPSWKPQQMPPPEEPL

This test has as its target SphK1 (Homo sapiens, UniProt Q9NYA1). Put plainly: SphK1 384-well flashplate kinase assay. The settings on record: enzyme assay. Format: biochemical. The method, then: The kinase assay is carried out as a 384-well flashplate assay.
5 nM modified SphK1, 800 nM omega-biotinyl-D-erythro-sphingosine and 1 μM ATP (with 0.3 μCi of ^33P-ATP/well) are incubated in a total volume of 50 μl (25 mM HEPES, 5 mM MgCl2, 1 mM dithiothreitol, 0.01% of Brij35, 0.1% of BSA (fatty acid-free), pH 7.4) without or with test substance (5-10 concentrations) at 30° C. for 120 min. The reaction is terminated using 25 μl of 200 mM EDTA solution, filtered off with suction at room temperature after 30 min, and the cavities are washed 3 times with 100 μl of 0.9% NaCl solution. The non-specific proportion of the kinase reaction (blank) is determined using 0.5 mM NaCl. Radioactivity is measured in topcount. IC50 values are calculated using RS1.
Usually IC50 stands for the point on the concentration scale where inhibition reaches its midpoint. `CC(CN1CCOCC1)CN1CCC(c2nc(-c3ccc4c(c3)C(C)(C)CCC4(C)C)cs2)CC1` (stereo not drawn) [Compound A1, 4-(2-methyl-3-{4-[4-(5,5,8,8-tetramethyl-5,6,7,8-tetrahydronaphthalen-2-yl)thiazol-2-yl]piperidin-1-yl}propyl)morpholine] came in with an IC50 greater than 10000 nM.

On to `CCN1CCCC(N2CCC(c3nc(-c4ccc5c(c4)C(C)(C)CCC5(C)C)cs3)CC2)C1` (stereo not drawn) [Compound A2, 1′-ethyl-4-[4-(5,5,8,8-tetramethyl-5,6,7,8-tetrahydronaphthalen-2-yl)thiazol-2-yl]-[1,3]bipiperidinyl], for which the IC50 is 1000 to 10000 nM.

The compound `NC(=O)CN1CCC(c2nc(-c3ccc4c(c3)CCCC4)cs2)CC1` [Compound A3] yielded an IC50 greater than 10000 nM.

On to `CN(C)CCN1CCC(c2nc(-c3ccc4c(c3)C(C)(C)CCC4(C)C)cs2)CC1` [Compound A4], for which the IC50 fell in the range of 1000 to 10000 nM.

Regarding `CN1CCCC1CCN1CCC(c2nc(-c3ccc4c(c3)C(C)(C)CCC4(C)C)cs2)CC1` (stereo not drawn) [Compound A5], the IC50 lay within 1000 to 10000 nM.

Consider `CN(C)CCN1CCC(c2nc(-c3ccc4c(c3)CCCC4)cs2)CC1` [Compound A6], for which the IC50 was greater than 10000 nM.

With `CN1CCCC1CCN1CCC(c2nc(-c3ccc4c(c3)CCCC4)cs2)CC1` (stereo not drawn) [Compound A7], the half-inhibitory concentration (IC50) is greater than 10000 nM.

Take `CC1(C)CCC(C)(C)c2cc(-c3csc(C4CCN(CC(N)=O)CC4)n3)ccc21` [Compound A8]: the IC50 lay in the range of 1000 to 10000 nM.

On to `CC1(C)CCC(C)(C)c2cc(-c3csc(C4CCN(CCO)CC4)n3)ccc21` [Compound A9], for which the IC50 was 10 to 1000 nM.

The compound `OCCN1CCC(c2nc(-c3ccc4c(c3)CCCC4)cs2)CC1` [Compound A11] gave an IC50 of 1000 to 10000 nM.

Take `CC1(C)CCC(C)(C)c2cc(-c3csc(C4CCN(C[C@@H](O)CO)CC4)n3)ccc21` [Compound A12]: the IC50 lay within 1000 to 10000 nM.

In the case of `OCCCN1CCC(c2nc(-c3ccc4c(c3)CCCC4)cs2)CC1` [Compound A13], the IC50 lay within 1000 to 10000 nM.

As to `OC[C@@H](O)CN1CCC(c2nc(-c3ccc4c(c3)CCCC4)cs2)CC1` [Compound A14], the half-inhibitory concentration (IC50) was in the range of 1000 to 10000 nM.

Compound `OC[C@H](O)CN1CCC(c2nc(-c3ccc4c(c3)CCCC4)cs2)CC1` [Compound A15] yielded a 50% inhibitory concentration (IC50) of 1000 to 10000 nM.

`CC1(C)CCC(C)(C)c2cc(-c3csc(C4CCN(CCCO)CC4)n3)ccc21` [Compound A16] yielded an IC50 of 1000 to 10000 nM.

For `COCC(O)CN1CCC(c2nc(-c3ccc4c(c3)C(C)(C)CCC4(C)C)cs2)CC1` (stereo not drawn) [Compound A17], the IC50 is 10 to 1000 nM.

Take `CCN(CC)C(=O)CN1CCC(c2nc(-c3ccc4c(c3)C(C)(C)CCC4(C)C)cs2)CC1` [Compound A18]: the IC50 was 1000 to 10000 nM.

The compound `CC1(C)CCC(C)(C)c2cc(-c3csc(C4CCN(CCN5CCCCC5)CC4)n3)ccc21` [Compound A19] yielded a half-inhibitory concentration (IC50) of 1000 to 10000 nM.

Consider `CC(C)NCC(O)CN1CCC(c2nc(-c3ccc4c(c3)C(C)(C)CCC4(C)C)cs2)CC1` (stereo not drawn) [Compound A20], for which the IC50 is 10 to 1000 nM.

The compound `CC1(C)CCC(C)(C)c2cc(-c3csc(C4CCN(CCN5CCCC5)CC4)n3)ccc21` [Compound A21] gave an IC50 of 1000 to 10000 nM.

For the compound `CC1(C)CCC(C)(C)c2cc(-c3csc(C4CCN(C[C@H](O)CO)CC4)n3)ccc21` [Compound A22], the IC50 lay within 10 to 1000 nM.

As to `CN1CCCCC1CCN1CCC(c2nc(-c3ccc4c(c3)C(C)(C)CCC4(C)C)cs2)CC1` (stereo not drawn) [Compound A23], the IC50 was in the range of 1000 to 10000 nM.

As to `CC1(C)CCC(C)(C)c2cc(-c3csc(C4CCN(CCn5c(=O)[nH]c6ccccc6c5=O)CC4)n3)ccc21` [Compound A24], the IC50 lay in the range of 1000 to 10000 nM.

For `CC1(C)CCC(C)(C)c2cc(-c3csc(C4CCN(CCN5CCOCC5)CC4)n3)ccc21` [Compound A25], the IC50 was 1000 to 10000 nM.

Consider `CCN(CC)CCN1CCC(c2nc(-c3ccc4c(c3)C(C)(C)CCC4(C)C)cs2)CC1` [Compound A26], for which the IC50 lay in the range of 1000 to 10000 nM.

Regarding `CC1(C)CCC(C)(C)c2cc(-c3csc(C4CCN(CC5CNC(=O)O5)CC4)n3)ccc21` (stereo not drawn) [Compound A27], the IC50 was 1000 to 10000 nM.

For the compound `CC1(C)CCC(C)(C)c2cc(-c3csc(C4CCN(CCCN5CCCCC5)CC4)n3)ccc21` [Compound A28], the IC50 lay in the range of 10 to 1000 nM.
